For 5 compounds, inhibition results are on record in patent US20260216216A1, “(N-ALKYLDIHYDROL-2H-OXAZINYL)-CANNABIDIOL AS ANTI-PROLIFERATIVE AGENT AND PROCESS FOR PREPARATION THEREOF” (COUNCIL OF SCIENTIFIC AND INDUSTRIAL RESEARCH, priority 2022, published 2026).

Read-outs that look alike come from different tables or passages of the source. Some results are limits rather than exact numbers.

Data set [1] deals with HEK-293 (normal cell lines). Nature of the data set: SRB in-vitro cytotoxicity assay, HEK-293. The conditions noted are these: Homo sapiens, HEK293, read-out: inhibition against HEK-293 cell lines. The protocol:
(§1) All the ring annulated analogues of cannabinoid were evaluated for their cytotoxicity against number of human cancer cell lines. To evaluate the in-vitro cytotoxicity, a sulphorhodamine B (SRB) assay was carried out. SRB is a negatively charged pink aminoxanthine dye that binds to the basic amino acid of cells in mildly acidic conditions and is removed in basic conditions. […] When cells reached 60-70% confluency, trypsinized and seeded in 96 well plates according to their inoculation density and incubated for 24 hours to attain their proper morphology. Next-day cells were again incubated for 48 hours with test compounds or paclitaxel (positive control). Next, cells were fixed with 50% of ice-cold TCA for 1 hours, washed with distilled water, and kept for air drying. Air-dried plates were then stained with 0.4% SRB dye for 30 minutes and subsequently with water and 1% v/v glacial acetic acid were then kept for air drying. […] The viability of cells is measured based on bound dye after fixation, which is measured by absorbance at 540 nm.

A further data set can be described thus: in vitro. To be noted: human. On the procedure:
as §1

Data set [2] deals with PC-3 (prostate cancer) cell line. The data set can be described thus: SRB in-vitro cytotoxicity assay, PC-3. The conditions noted are these: Homo sapiens. The protocol: as §1
Data set [3] has as its system A549 (lung cancer) cell line. The data set can be described thus: SRB in-vitro cytotoxicity assay, A549. The conditions noted are these: Homo sapiens. On the procedure:
as §1

Data set [4] relates to HCT-116 (colorectal cancer) cell line. The data set can be described thus: SRB in-vitro cytotoxicity assay, HCT-116. To be noted: Homo sapiens. On the procedure:
as §1

Data set [5] concerns U251 (glioblastoma) cell line. The data set can be described thus: SRB in-vitro cytotoxicity assay, U251. To be noted: Homo sapiens. On the procedure: as §1
Data set [6] concerns Mia-PaCa (pancreatic cancer) cell line. The data set can be described thus: SRB in-vitro cytotoxicity assay, Mia-PaCa. The conditions noted are these: Homo sapiens. On the procedure:
as §1

Data set [7] has as its system MCF-7 (breast cancer) cell line. The data set can be described thus: SRB in-vitro cytotoxicity assay, MCF-7. To be noted: Homo sapiens. On the procedure:
as §1

[8] abbreviates: 48 h, read-out: Cytotoxicity (in vitro cell inhibition) PC3.
[9] abbreviates: PC-3, read-out: inhibition against PC3 cell lines.
Setting [10] is: A549, 48 h, read-out: Cytotoxicity (in vitro cell inhibition) A549.
Setting [11] is: A549, read-out: inhibition against A549 cell lines.
Setting [12] is: HCT-116, 48 h, read-out: Cytotoxicity (in vitro cell inhibition) HCT-116.
Where [13] appears, read: HCT-116, read-out: inhibition against HCT-116 cell lines.
[14] abbreviates: U-251, 48 h, read-out: Cytotoxicity (in vitro cell inhibition) U251.
[15] abbreviates: U-251, read-out: inhibition against U251 cell lines.
[16] abbreviates: MIA PaCa-2, 48 h, read-out: Cytotoxicity (in vitro cell inhibition) Mia-PaCa.
Where [17] appears, read: MIA PaCa-2, read-out: inhibition against Mia-PaCa cell lines.
The mark [18] stands for this setting: MCF7, 48 h, read-out: Cytotoxicity (in vitro cell inhibition) MCF-7.
Where [19] appears, read: MCF7, read-out: inhibition against MCF-7 cell lines.

With `C=C(C)[C@@H]1CCC(C)=C[C@H]1c1c(O)cc(CCCCC)c2c1OCN(C)C2` [Ia, (N-methyldihydrol-2H-oxazinyl)-cannabidiol], the inhibition at 20 µM (in data set [1]; in the data set “in vitro”; in data set [2] (setting [8]); in data set [2] (setting [9]); in data set [3] (setting [10]); in data set [3] (setting [11])) was > 70% each time. The inhibition at 20 µM in data set [4] (setting [12]) was 50 to 70%; in data set [4] (setting [13]), > 50%; in data set [5] (setting [14]) it was > 70%; in data set [5] (setting [15]), > 70%; in data set [6] (setting [16]), > 70%; in data set [6] (setting [17]), > 70%. Besides, the inhibition at 20 µM in data set [7] (setting [18]) and in data set [7] (setting [19]) was > 70% each time.
With `C=C(C)[C@@H]1CCC(C)=C[C@H]1c1c(O)cc(CCCCC)c2c1OCN(CC)C2` [Ib, (N-ethyldihydrol-2H-oxazinyl)-cannabidiol], the inhibition at 20 µM in data set [1] is > 50%; in “in vitro”, 50 to 70%; in data set [2] (setting [8]), > 70%; in data set [2] (setting [9]), > 70%; in data set [3] (setting [10]), > 70%; in data set [3] (setting [11]) it was > 70%. Besides, the inhibition at 20 µM was 50 to 70% in data set [4] (setting [12]); > 50% in data set [4] (setting [13]); 50 to 70% in data set [5] (setting [14]); > 50% in data set [5] (setting [15]); > 70% in data set [6] (setting [16]); > 70% in data set [6] (setting [17]). The inhibition at 20 µM in data set [7] (setting [18]) and in data set [7] (setting [19]) was > 70% throughout.
For `C=C(C)[C@@H]1CCC(C)=C[C@H]1c1c(O)cc(CCCCC)c2c1OCN(CCCN1CCOCC1)C2` [If, (N-morpholinopropyldihydrol-2H-oxazinyl)-cannabidiol], the inhibition at 20 µM in data set [1] is > 50%; in data set [2] (setting [8]), > 70%; in data set [2] (setting [9]) it was > 70%; in data set [3] (setting [10]) it was > 70%; in data set [3] (setting [11]), > 70%; in data set [4] (setting [12]) it was 50 to 70%. Further, the inhibition at 20 µM was > 50% in data set [4] (setting [13]); > 70% in data set [5] (setting [14]); > 70% in data set [5] (setting [15]); > 70% in data set [6] (setting [16]); > 70% in data set [6] (setting [17]); > 70% in data set [7] (setting [18]). The inhibition at 20 µM in data set [7] (setting [19]) is > 70%. In “in vitro”, the inhibition at 48 h, 20 µM is 50 to 70%.
As for `C=C(C)[C@@H]1CCC(C)=C[C@H]1c1c(O)cc(CCCCC)c2c1OCN(C1CCC1)C2` [Ih, (N-cyclobutyldihydrol-2H-oxazinyl)-cannabidiol], the inhibition at 20 µM in data set [1] is > 50%; in the data set “in vitro”, 50 to 70%; in data set [2] (setting [8]), > 70%; in data set [2] (setting [9]) it was > 70%; in data set [3] (setting [10]), 50 to 70%; in data set [3] (setting [11]), > 50%. For the same compound, the inhibition at 20 µM was 50 to 70% in data set [4] (setting [12]); > 50% in data set [4] (setting [13]); 50 to 70% in data set [5] (setting [14]); > 50% in data set [5] (setting [15]); > 70% in data set [6] (setting [16]); > 70% in data set [6] (setting [17]). Further, the inhibition at 20 µM in data set [7] (setting [18]) and in data set [7] (setting [19]) was > 70% each time.
As to `CC(=O)O[C@H]1C(=O)[C@@]2(C)[C@H]([C@H](OC(=O)c3ccccc3)[C@]3(O)C[C@H](OC(=O)[C@H](O)[C@@H](NC(=O)c4ccccc4)c4ccccc4)C(C)=C1C3(C)C)[C@]1(OC(C)=O)CO[C@@H]1C[C@@H]2O` [Paclitaxel, paclitaxel, reference compound], the inhibition at 20 µM in data set [1], in data set [2] (setting [8]), in data set [2] (setting [9]), in data set [3] (setting [10]), in data set [3] (setting [11]) and in data set [4] (setting [12]) was > 70% each time. Besides, the inhibition at 20 µM in data set [4] (setting [13]), in data set [5] (setting [14]), in data set [5] (setting [15]), in data set [6] (setting [16]), in data set [6] (setting [17]) and in data set [7] (setting [18]) was > 70% throughout. Besides, the inhibition at 20 µM in data set [7] (setting [19]) was > 70%. For the same compound, the inhibition at 48 h, 20 µM in “in vitro” was > 70%.

For orientation: inhibition means the drop in the measured response relative to a control, in per cent.
